Assay results taken from ChEMBL document CHEMBL3727359, “Methods and compositions for treating or preventing pruritis” (2012).

Assays:
[1] = target: T1, Mas-related G-protein coupled receptor member X1 (Homo sapiens, UniProt Q96LB2); assay: Antagonist activity at MrgX1 in mouse or rat DRG neurons assessed as intracellular Ca2+ level by FLIPR assay; assay type: functional, cell-based
[2] = target: T1, Mas-related G-protein coupled receptor member X1; assay: Antagonist activity at MrgX1 in mouse or rat DRG neurons assessed as action potential by whole-cell patch clamp method; assay type: functional

T1 sequence (Q96LB2 whole entry, looked up): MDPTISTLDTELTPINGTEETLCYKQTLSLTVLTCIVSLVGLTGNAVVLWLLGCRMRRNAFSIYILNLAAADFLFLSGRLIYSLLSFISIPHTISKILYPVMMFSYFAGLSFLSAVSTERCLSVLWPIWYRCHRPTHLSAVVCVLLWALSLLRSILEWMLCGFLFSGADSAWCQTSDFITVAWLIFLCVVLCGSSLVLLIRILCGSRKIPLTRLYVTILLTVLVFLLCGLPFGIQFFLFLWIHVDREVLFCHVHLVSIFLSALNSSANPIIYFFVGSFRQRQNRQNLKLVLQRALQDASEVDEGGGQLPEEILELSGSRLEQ

N#Cc1ccc(COC2C3CCN(CC3)C2C(c2ccccc2)c2ccccc2)cc1 (configuration not stated)
IC50 [1]: 0.632 µM | IC50 [2]: 5.6 µM
